# Results as given in patent US11046954B2, “Targeted protein degradation to attenuate adoptive T-cell therapy associated adverse inflammatory responses” (Dana-Farber Cancer Institute, Inc., priority 2015, dated 2021).
# How the values were obtained:
# [1] = system: FKBP*-KRASG12V; test: Immunoblot of NIH3T3 cells expressing FKBP* fused to KRASG12V: degradation; type: cell-based; conditions: 1 μM, 24 hours
# Procedure: (§1) FIG. 19 is an immunoblot of NIH3T3 cells expressing KRASG12V allele fused to FKBP* in the N-terminus or C-terminus. Cells were treated with 500 nM dFKBP7 for the indicated time. Cells were harvested and immunoblotted to measure degradation of FKBP*-KRASG12V and downstream surrogates of KRAS signaling (e.g. pMEK and pAKT).
# (§2) FIG. 20 is an immunoblot of NIH3T3 cells expressing FKBP* fused to the N-terminus of KRASG12V treated with luM of the indicated dFKBP heterobifunctional compounds for 24 hours. Cells were harvested and immunoblotted to measure degradation of FKBP*-KRASG12V and downstream surrogates of KRAS signaling (e.g. pMEK and pAKT).
# as §2, with “21” for “20”, “with” for “with luM of”, “concentrations of dFKBP13” for “dFKBP heterobifunctional compounds”
# (§3) FIG. 22 is an immunoblot of NIH3T3 cells expressing FKBP* fused to the N-terminus of KRASG12V treated with luM dFKBP13 for the indicated time. Cells were harvested and immunoblotted to measure degradation of FKBP*-KRASG12V and downstream surrogates of KRAS signaling (e.g. pMEK and pAKT).
# (§4) Cells were treated with 500 nM dFKBP7 for the indicated time. Cells were harvested and immunoblotted to measure degradation of FKBP*-KRAS and downstream surrogates of KRAS signaling (e.g. pMEK and pAKT).
# (§5) Western blotting of NIH3T3 cells expressing dTAG-KRASG12V were treated with 1 μM of the indicated dFKBP heterobifunctional compounds for 24 hours. Cells were harvested and immunoblotted to measure degradation of FKBP*-KRAS and downstream surrogates of KRAS signaling (e.g. pMEK and pAKT).
# (§6) Western blotting of NIH3T3 cells expressing FKBP* fused to the N-terminus of KRAS treated with the indicated concentrations of dFKBP13 for 24 hours. Cells were harvested and immunoblotted to measure degradation of FKBP*-KRAS and downstream surrogates of KRAS signaling (e.g. pMEK and pAKT).
# (§7) To evaluate the kinetic control of targeted degradation of dTAG-KRAS, dFKBP13 was administered by increased duration. Western blotting of NIH3T3 cells expressing FKBP* fused to the N-terminus of KRAS treated with 1 μM dFKBP13 for the indicated time. Cells were harvested and immunoblotted to measure degradation of FKBP*-KRAS and downstream surrogates of KRAS signaling (e.g. pMEK and pAKT).
# [2] = system: downstream surrogates of KRAS signaling (e.g. pMEK and pAKT); test: Immunoblot of NIH3T3 cells expressing FKBP*-KRASG12V: downstream KRAS signaling; type: cell-based; conditions: NIH3T3 FKBP*-KRASG12V; 1 μM, 24 hours
# Procedure: as §1, §2
# as §3, with “21” for “22”, “the indicated concentrations of” for “luM”, “24 hours.” for “the indicated time.”
# as §3, §4, §5, §6, §7
compound,measurement,setting,value
CC[C@H](C(=O)N1CCCC[C@H]1C(=O)O[C@H](CCc1ccc(OC)c(OC)c1)c1cccc(OCC(=O)NCCCCCCCCNC(=O)COc2cccc3c2C(=O)N(C2CCC(=O)NC2=O)C3=O)c1)c1cc(OC)c(OC)c(OC)c1 (some centres unmarked) [dFKBP9],degradation of FKBP*-KRASG12V,[1],potent degradation
same,"inhibition of downstream signaling (pMEK, pAKT)",[2],inhibition of downstream signaling
